From PMC9409351, “Differential Ganglioside and Cholesterol Depletion by Various Cyclodextrin Derivatives and Their Effect on Synaptosomal Glutamate Release” (International Journal of Molecular Sciences, 2022)

Columns and labels:
[1] = system: rat cerebral synaptosomes; assay: Basal and 4-aminopyridine-evoked glutamate release from synaptosomes (CE-LIF); format: cell-based; settings: 10 mM DIMEB, 33 mM HPBCD, 26 mM RAMEA, 85 mM HPACD; 40 min exposure; 1 mM 4-AP, 8 min
Experimental: After thawing and centrifugation, the cryopreserved synaptosomes were resuspended in isotonic HEPES-glucose buffer. Synaptosomal suspensions corresponding to 10 mg of synaptosomes were centrifuged to an 8-well strip plate (15 min, 2500× g, 4 °C) and the supernatant was discarded. Vehicle-treated (control) and CD-treated synaptosomes were incubated in 200 μL HEPES-glucose buffer with or without CDs, respectively, for 40 min at 37 °C. […] After incubation, the supernatant was replaced with fresh HEPES-glucose buffer containing 40 µM DL-TBOA (a competitive, non-transportable blocker of excitatory amino acid transporters that inhibits the reuptake of released glutamate) and equilibrated for 2 × 10 min at 37 °C with buffer replacement. After equilibration, the buffer was replaced by fresh HEPES-glucose buffer in the case of unstimulated groups. […] Following stimulation, aliquots were taken from the buffer at 8 min and stored at −20 °C until CE analysis. The glutamate content of the aliquots was analyzed by a capillary electrophoresis-laser induced fluorescence method developed in our laboratory. Briefly, samples were subjected to derivatization with NBD-F (1 mg/mL final concentration) in 20 mM borate buffer, pH 8.5 for 20 min at 65 °C. […] Glutamate release was normalized to the baseline release from the vehicle-treated, unstimulated synaptosomes. Data were analyzed by GraphPad Prism 8 (GraphPad Software, La Jolla, CA, USA). Concentration–response curves were constructed by the nonlinear regression method. One-way ANOVA followed by Bonferroni’s post hoc test was used for the data analysis in the case of the glutamate release experiments. All data are presented as means ± SEM of at least three parallel measurements. Differences were considered significant if p < 0.05.

[2] = system: GM2 and GM3 immunoreactivity; set-up: method as in PMID 27231706; settings: NPC mouse model; cited from earlier work
[3] = system: cell model of GM1 gangliosidosis; set-up: method as in doi:10.1007/s10847-018-0835-8; settings: immunofluorescence staining; cited from earlier work

COC[C@H]1O[C@@H]2O[C@H]3[C@H](O)[C@@H](OC)[C@@H](O[C@H]4[C@H](O)[C@@H](OC)[C@@H](O[C@H]5[C@H](O)[C@@H](OC)[C@@H](O[C@H]6[C@H](O)[C@@H](OC)[C@@H](O[C@H]7[C@H](O)[C@@H](OC)[C@@H](O[C@H]8[C@H](O)[C@@H](OC)[C@@H](O[C@H]1[C@H](O)[C@H]2OC)O[C@@H]8COC)O[C@@H]7COC)O[C@@H]6COC)O[C@@H]5COC)O[C@@H]4COC)O[C@@H]3COC [DIMEB, heptakis(2,6-di-O-methyl)-beta-cyclodextrin]
4-AP-evoked (stimulated) glutamate release [1]: not detected

CC(O)COC[C@H]1O[C@@H]2O[C@H]3[C@H](O)[C@@H](O)[C@@H](O[C@H]4[C@H](O)[C@@H](O)[C@@H](O[C@H]5[C@H](O)[C@@H](O)[C@@H](O[C@H]6[C@H](O)[C@@H](O)[C@@H](O[C@H]7[C@H](O)[C@@H](O)[C@@H](O[C@H]8[C@H](O)[C@@H](O)[C@@H](O[C@H]1[C@H](O)[C@H]2O)O[C@@H]8COCC(C)O)O[C@@H]7COCC(C)O)O[C@@H]6COCC(C)O)O[C@@H]5COCC(C)O)O[C@@H]4COCC(C)O)O[C@@H]3COCC(C)O (stereo partly drawn) [HPBCD, (2-hydroxypropyl)-beta-cyclodextrin]
4-AP-evoked (stimulated) glutamate release [1]: still evoked glutamate release | Accumulation of GM2 and GM3 immunoreactivity [2]: reduces the accumulation of GM2 and GM3 immunoreactivity

(2-hydroxypropyl)-alpha-cyclodextrin [HPACD]
Lysosomal accumulation of GM1 [3]: reduced lysosomal accumulation of GM1 | 4-AP-evoked (stimulated) glutamate release [1]: not detected | Accumulation of GM2 and GM3 immunoreactivity [2]: much less effective compared to HPBCD

randomly methylated alpha-cyclodextrin [RAMEA]
4-AP-evoked (stimulated) glutamate release [1]: not detected
